# Read-outs that look alike come from different tables or passages of the source.
# Legend:
# [1] = system: RK-13, Vero cells, and WISH cells; details: cultures with vs without TEAC
# Experimental: To determine the toxicity level of the drug, all three cell lines--RK-13, Vero cells, and WISH cells--were used. In the toxicity experiments, the effect of the drug on the uninfected cell for a range of periods of time was determined. Accordingly, cultures were incubated with and without the drug. The time of exposure was from one to seven hours. A comparison was then made between the drug treated cultures and the control cultures. After each period of incubation, the cells were washed and fresh media was added to the cells. The cell viability was then determined by dividing these cultures and having them grow into new cell cultures.
# HSV-2 (333 strain) = details: for % plaque inhibition: 2 hours pre-incubation
# Experimental: In Series No. 1 of Example No. 1, monolayer cultures of Vero, RK-13 (rabbit kidney), and WISH (human amnion, Hayflick) cells were used in the experiments of Example No. 1. The cells were grown in Basal Minimal Eagle's Media supplemented with 5% fetal calf serum, 1% glutamine, sodium bicarbote and antibiotics. Cultures were maintained in a maintenance media that was the same media, except that the maintenance media contained 2% fetal calf serum. An F Strain of HSV-1 was chosen because it is a well-known prototype of HSV-1. This F Strain can be obtained from the American Type Culture Collection (ATCC), 12301 Parklawn Drive, Rockville, MD 20852, at which it is identified as ATC-VR 733. For studies with HSV-2, a G strain of HSV-2 (ATCC-VR 734) and a 333 strain of HSV-2 were selected. These strains also can be obtained from the ATCC.
# Two methods were used to test the drug's effectiveness in the suppression of viral growth. In the pre-inoculation experiments, the drug was added after adsorption of the virus. In the pre-incubation experiments, the drug was added prior to infection of the cell cultures.
# Accordingly, the pre-inoculation experiments measured the effect of the drug on a cell that was already infected with the virus. The pre-incubation experiments measured the cell cultures that were treated with the drug prior to the inoculation to determine if these cells then would be permissive or non-permissive to the tested virus. In these experiments, plaque reduction assays provided a quantitative measure of antiviral activity and was deemed to be reliable and objective.
# In the pre-incubation experiments, the media was either decanted or gently aspirated from the cultures. After decanting or aspirating, 1 ml of the drug dilution plus maintenance media was added to the cultures. The cultures that served as virus controls or cell controls received 2 ml of maintenance media. After the pre-treatment period, the media was again aspirated and the cell cultures were infected with the virus.
# When this occurred, the cultures were fixed and stained with crystal violet. The plaque were then carefully counted under the microscope. By such a counting and careful comparison, percentages of plaque inhibition in the treated cultures were then calculated.
# The 333 strain, which can be obtained from ATCC, was used.
# HSV-2 = system: HSV-2
# Experimental: Female guinea pigs (obtained from Charles River, Inc.) weighing approximately 200 g were used as a model for HSV-2 skin lesions. The animals were anesthetized with 0.15 ml of Ketamine-Rompum mixture. The animals were first shaved on their back with a hair clipper and then treated with a depilatory cream (Nair). The denuded area was washed well and then dried. A tuberculin tyne was washed with ethanol and air dried.
# Two methods were tried for infecting the animals with the virus. In one, a drop of HSV-2 suspension was placed on the skin and the skin was punctured with the tyne. In the second method, the tyne was dipped in the virus suspension before puncturing the skin.
# In the first experiment, each of 3 guinea pigs was infected on three areas of their backs. At 3 days post infection, treatment was begun on one side of each animal, leaving the other side untreated as a control.
# The animals were examined daily for vesicles (V), crust (C) and for erythema (R) alone.
# In the next experiment, 6 guinea pigs were infected in the same manner as the initial 3 guinea pigs. Treatment was begun 12-16 hours post infection. […] Lesions showing an erythematous base with either a blister or a crust on top were considered to be HSV specific. […] Both the control animals and treated animals were carefully read in the same manner.
# HSV-1 (McKrae strain) = details: Virus and Drug (20 mg/ml)
smiles,measurement,setting,value
"CC[N+](CC)(CC)CC.[Cl-] [TEAC, tetraethylammonium chloride]",rate of growth vs cultures without TEAC,[1],no difference in the rate of growth
same,% plaque inhibition,HSV-2 (333 strain); 6.25 mg/culture,0%
same,% plaque inhibition,HSV-2 (333 strain); 12.50 mg/culture,25%
same,% plaque inhibition,HSV-2 (333 strain); 25.00 mg/culture,42%
same,% plaque inhibition,HSV-2 (333 strain); 50.00 mg/culture,56%
same,sensitivity of HSV-2 (333 strain) to TEAC vs HSV-1,HSV-2 (333 strain); based on Table 6,even more sensitive to TEAC than HSV-1
same,number and size of lesions,HSV-2; TEAC from 12-16 hours P.I.,"significant reduction in the number of lesions, but also in their size"
same,rupture and crusting of lesions,HSV-2; TEAC from 12-16 hours P.I.,the lesions neither ruptured nor crusted
same,"number and appearance of lesions, treated vs control",HSV-2; TEAC ointment from 12-16 hours P.I.,"marked difference between the two groups, not only in the number of lesions but also in their appearance"
same,Percent Reduction of lesions,"HSV-2; TEAC ointment from 12-16 hours P.I., day 3 P.I.",21.0%
same,# of lesions,"HSV-2; TEAC ointment from 12-16 hours P.I., day 3 P.I., control 19",15 lesions
same,Percent Reduction of lesions,"HSV-2; TEAC ointment from 12-16 hours P.I., day 4 P.I.",27.5%
same,# of lesions,"HSV-2; TEAC ointment from 12-16 hours P.I., day 4 P.I., control 40",29 lesions
same,Percent Reduction of lesions,"HSV-2; TEAC ointment from 12-16 hours P.I., day 5 P.I.",58.5%
same,# of lesions,"HSV-2; TEAC ointment from 12-16 hours P.I., day 5 P.I., control 41",17 lesions
same,Percent Reduction of lesions,"HSV-2; TEAC ointment from 12-16 hours P.I., day 6 P.I.",58.3%
same,# of lesions,"HSV-2; TEAC ointment from 12-16 hours P.I., day 6 P.I., control 36",15 lesions
same,dermatitis (rash),"HSV-2; day 4 after treatment, TEAC or its vehicle or both",a rash appeared
same,"cells exhibiting CPE, area of infection per field","HSV-1 (McKrae strain); 6 hours P.I., virus control 1/4",1/6
same,"cells exhibiting CPE, area of infection per field","HSV-1 (McKrae strain); 30 hours P.I., virus control 1/2",scattered
same,sciatic pain,"HSV type 2; Patient A, 2.8 cc (100 mg/cc), first infusion, immediately after",cessation of sciatic pain
same,pain or lesions,"HSV type 2; Patient A, about five weeks after third infusion 3.4 cc",no further pain or lesions
same,time without lesions or pain,"HSV type 2; Patient A, after first infusion",52 to 53 days
same,time until spots were gone,"HSV type 2; Patient A, after third infusion",24 h
same,symptoms,"HSV type 2; Patient A, approximately three weeks after first infusion",asymptomatic
same,lesions or pain at last contact,"HSV type 2; Patient A, eighteen months after the initial exam",no further lesions or pain
same,time to disappearance of vesicles,"HSV type 2; Patient A, recurrence after first infusion",two to three
same,sciatic nerve pain,"HSV type 2; Patient A, second infusion 3.2 cc",sciatic nerve pain disappeared during the infusion
same,clearance,"HSV type 2; Patient E, a week after second infusion, 2 pinpoint lesions remaining",99%
same,new pinpoint lesions,"HSV type 2; Patient E, after third infusion",5-6 pinpoint lesions
same,lesions,"HSV type 2; Patient E, third infusion 5 cc, 5 days later",all lesions had cleared up
same,general condition,"HSV type 2; Patient F, about 3 weeks after third infusion",completely cleared up
same,lesion,"HSV type 2; Patient F, first infusion 3.8 cc, next day",improved
same,time to clearing of lesion,"HSV type 2; Patient F, second infusion 4.5 cc",48 h
same,time to clearing of lesions,"HSV type 2; Patient F, third infusion 4.0 cc",≤ 4 days
same,time until lesions were gone,"HSV type 2; Patient G, first infusion 4.3 cc",≤ 48 h
same,long term outcome,"HSV type 2; Patient J, 12 months later, ointment",the problem has resolved itself completely
same,severity of subsequent attacks,"HSV type 2; Patient K, after second infusion",milder severity
same,anticipated massive attack,"HSV type 2; Patient K, second infusion 3.4 cc, six weeks later",the attack had not occurred
same,drug related effects,"Patient A, 2.8 cc infusion",some blurred vision and slight dizziness on rising to the seated position
same,drug related effects,"Patient A, 3.2 cc infusion",some blurred vision
same,drug related effects,"Patient B, 3.7 cc (5 mg/kg) infusion","blurred vision, dryness of the mouth, and unsteady gait"
same,time to cessation of drug related effects,"Patient B, after cessation of infusion",10 to 15 min
same,drug related effects,"Patient C, 3.85 cc (5 mg/kg)",slightly blurred vision
same,drug related effects,"Patient D, 2.8 cc (5 mg/kg)",dry mouth and transient blurred vision
same,drug related effects,"Patient E, 4.8 cc (5 mg/kg)",slightly blurred vision
same,drug related effects,"Patient J, 3.6 cc (5.5 mg/kg)",some blurred vision
same,drug related effects,"Patient K, 3.1 cc and 3.4 cc",some blurred vision
same,drug related effects,"Patient L, 2.9 cc (5.5 mg/kg)",some blurred vision
same,time patient felt badly following treatment,"Patient L, 2.9 cc (5.5 mg/kg)",24 to 36 h
